Assay results from patent US10213429B2, “Imidazo-pyrazinyl derivatives useful as soluble guanylate cyclase activators” (Merck Sharp & Dohme Corp., priority 2015, dated 2019).

Legend:
sGC α1/β1 heterodimer = target: T1, sGC α1/β1 heterodimer (Homo sapiens, UniProt Q02108+Q02153); assay: Cell-Based sGC Functional Assay (CASA Assay), cGMP by HTRF in CHO-K1/sGC cells; conditions: for Emax: CHO-K1, percent activation relative to maximum cGMP production of Compound A (= 100%), read-out: % Act.; for EC50: cGMP production, 1 hr at 37° C., 4P fit, presence or absence of 1 μM DETA-NO not given, read-out: IP (nM) (inflection point)
T1 construct: expressed in transfected cells; host or cells: CHO-K1 (clone #7, CHO-K1/sGC)
T1 sequence (Q02108 1-690): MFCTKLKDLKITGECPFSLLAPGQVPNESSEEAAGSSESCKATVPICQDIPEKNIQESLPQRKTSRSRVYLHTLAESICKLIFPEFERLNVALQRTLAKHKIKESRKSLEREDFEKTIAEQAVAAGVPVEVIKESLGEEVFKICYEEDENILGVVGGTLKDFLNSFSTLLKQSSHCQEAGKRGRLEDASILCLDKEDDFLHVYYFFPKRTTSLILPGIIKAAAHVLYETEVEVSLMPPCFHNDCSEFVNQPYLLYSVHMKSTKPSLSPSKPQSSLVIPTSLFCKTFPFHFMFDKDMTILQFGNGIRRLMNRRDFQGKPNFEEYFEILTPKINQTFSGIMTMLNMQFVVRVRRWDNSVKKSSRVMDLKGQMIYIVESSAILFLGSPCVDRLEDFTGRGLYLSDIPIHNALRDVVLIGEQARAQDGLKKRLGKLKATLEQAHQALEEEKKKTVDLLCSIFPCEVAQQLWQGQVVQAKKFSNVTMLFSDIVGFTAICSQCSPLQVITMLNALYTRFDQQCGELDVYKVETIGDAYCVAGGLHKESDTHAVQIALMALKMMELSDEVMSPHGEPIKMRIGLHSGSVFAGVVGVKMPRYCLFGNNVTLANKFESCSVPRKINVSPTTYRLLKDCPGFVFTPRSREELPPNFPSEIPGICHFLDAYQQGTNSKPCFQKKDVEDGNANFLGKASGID
T1 sequence (Q02153 1-619): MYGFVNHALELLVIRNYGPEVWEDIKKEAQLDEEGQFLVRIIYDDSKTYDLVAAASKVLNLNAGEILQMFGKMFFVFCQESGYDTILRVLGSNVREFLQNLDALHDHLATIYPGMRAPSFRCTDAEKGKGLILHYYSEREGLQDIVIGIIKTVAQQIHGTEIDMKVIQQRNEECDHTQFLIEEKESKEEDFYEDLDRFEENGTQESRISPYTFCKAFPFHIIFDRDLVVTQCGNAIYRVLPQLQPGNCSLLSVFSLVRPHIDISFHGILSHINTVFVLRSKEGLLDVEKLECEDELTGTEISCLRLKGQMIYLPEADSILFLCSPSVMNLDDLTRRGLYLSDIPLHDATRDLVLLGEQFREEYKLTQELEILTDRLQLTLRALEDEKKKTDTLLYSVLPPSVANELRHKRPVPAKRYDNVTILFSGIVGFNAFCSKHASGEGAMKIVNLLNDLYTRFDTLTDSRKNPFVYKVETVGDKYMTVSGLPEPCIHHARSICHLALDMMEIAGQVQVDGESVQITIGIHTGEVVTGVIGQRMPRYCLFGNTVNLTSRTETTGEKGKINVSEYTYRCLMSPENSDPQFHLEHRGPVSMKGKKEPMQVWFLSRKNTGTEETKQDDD
How it was run: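 CHO-K1 cells stably expressing human sGC α1/β1, in EBSS buffer with 5 mM MgCl2, 10 mM HEPES, 0.05% BSA and 0.5 mM IBMX, incubated with compound (2.5% DMSO) ± 1 μM DETA-NO, 1 h, 37 °C. Intracellular cGMP read by HTRF; activity as % of reference activator maximum, IP from 4-parameter fit.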

[1] = test system: Spontaneously hypertensive rats (SHR); assay: Acute Efficacy in Spontaneously Hypertensive Rats (SHR), telemetry blood pressure; type: in vivo, rat; conditions: SHR male
Source text: Acute Efficacy in Spontaneously Hypertensive Rats (SHR)
Spontaneously hypertensive rats (SHR, male, Charles River) were implanted with DSI TA11PA-C40 telemetry device (Data Sciences, Inc., St. Paul, Minn.) under isoflurane or ketamine/metomidine anesthesia. The telemetry unit catheter was inserted into the descending aorta via the femoral artery and the telemetry device was implanted subcutaneously in the left flank area. Animals were allowed to recover from surgery for 14 days before the start of any studies. Blood pressure, heart rate, and activity signals from conscious, freely moving rats were recorded continuously for 30 seconds every 10 minutes. On the day prior to administration of compound, a single oral dose of vehicle (10% transcutol/20% Cremophor/70% water) was administered to all animals to establish baseline control data. The blood pressure lowering efficacy of compound (PO) or vehicle was evaluated following a single oral gavage. Data were collected as hourly averages, and changes in blood pressure were calculated by subtracting control baseline data on an hourly basis. Animals were maintained on normal diet with a 12 hour light-dark cycle.
Maximum peak decreases of systolic blood pressure (SBP) in SHR at a particular P.O. dose (mpk milligrams per kilogram) for the following representative compounds are provided. • Category A=SBP in SHRs<20 mmHg; Category B=SBP in SHRs 20-40 mmHg; • Category C=SBP in SHRs>40 mmHg

Structure (SMILES) | Emax (sGC α1/β1 heterodimer) | EC50 (sGC α1/β1 heterodimer) | Cat. (maximum peak decrease of systolic blood pressure (SBP) in SHR) ([1]; single oral dose 3.0 mpk P.O.) | Cat. (maximum peak decrease of systolic blood pressure (SBP) in SHR) ([1]; single oral dose 1.0 mpk P.O.) | Cat. (maximum peak decrease of systolic blood pressure (SBP) in SHR) ([1]; single oral dose 0.3 mpk P.O.)
CC1(c2ccc(F)cc2)C(=O)Nc2nc(-c3cn4ccnc4c(CC4CCC4)n3)nc(O)c21 (stereo not drawn) [Example 29A, 2-(8-(cyclobutylmethyl)imidazo [1,2-a]pyrazin-6-yl)-5-(4-fluorophenyl)-4-hydroxy-5-methyl-5H-pyrrolo[2,3-d]pyrimidin-6(7H)-one] | 92% | 225 nM | B (Category B=SBP in SHRs 20-40 mmHg) |  | 
CC1(c2ccc(F)cc2)C(=O)Nc2nc(-c3cn4ccnc4c(CCCC(F)(F)F)n3)nc(O)c21 (stereo not drawn) [Example 30A, 5-(4-fluorophenyl)-4-hydroxy-5-methyl-2-(8-(4,4,4-trifluorobutyl)imidazo[1,2-a]pyrazin-6-yl)-5H-pyrrolo[2,3-d]pyrimidin-6(7H)-one] | 89% | 436 nM |  | B (Category B=SBP in SHRs 20-40 mmHg) | 
CC1(c2ccc(F)cn2)C(=O)Nc2nc(-c3cn4ccnc4c(CC4CCC4)n3)nc(O)c21 (stereo not drawn) [Example 31B, 2-(8-(cyclobutylmethyl)imidazo [1,2-a]pyrazin-6-yl)-5-(5-fluoropyridin-2-yl)-4-hydroxy-5-methyl-5H-pyrrolo[2,3-d]pyrimidin-6(7H)-one] | 82% | 459 nM | B (Category B=SBP in SHRs 20-40 mmHg) |  | 
CC1(c2ccc(F)cn2)C(=O)Nc2nc(-c3cn4ccnc4c(CCCC(F)(F)F)n3)nc(O)c21 (stereo not drawn) [Example 32B, 5-(5-fluoropyridin-2-yl)-4-hydroxy-5-methyl-2-(8-(4,4,4-trifluorobutyl)imidazo[1,2-a]pyrazin-6-yl)-5H-pyrrolo[2,3-d]pyrimidin-6(7H)-one] | 115% | 880 nM |  | B (Category B=SBP in SHRs 20-40 mmHg) | 
O=C1Nc2nc(-c3cn4ccnc4c(CCCC(F)(F)F)n3)nc(O)c2C1(c1ccc(Cl)cc1F)C1CC1 (stereo not drawn) [Example 34A, 5-(4-chloro-2-fluorophenyl)-5-cyclopropyl-4-hydroxy-2-(8-(4,4,4-trifluorobutyl)imidazo[1,2-a]pyrazin-6-yl)-5H-pyrrolo[2,3-d]pyrimidin-6(7H)-one] | 124% | 102 nM | B (Category B=SBP in SHRs 20-40 mmHg) |  | 
O=C1Nc2nc(-c3cn4ccnc4c(CCCC(F)(F)F)n3)nc(O)c2C1(c1ccc(F)cc1)C1CC1 (stereo not drawn) [Example 35B, 5-cyclopropyl-5-(4-fluorophenyl)-4-hydroxy-2-(8-(4,4,4-trifluorobutyl)imidazo[1,2-a]pyrazin-6-yl)-5H-pyrrolo[2,3-d]pyrimidin-6(7H)-one] | 148% | 190 nM | A (Category A=SBP in SHRs<20 mmHg) |  | 
CC1(c2ccc(Cl)cn2)C(=O)Nc2nc(-c3cn4ccnc4c(CCC(F)(F)C(F)(F)F)n3)ncc21 (stereo not drawn) [Example 36A, 5-(5-Chloropyridin-2-yl)-5-methyl-2-(8-(3,3,4,4,4-pentafluorobutyl)imidazo[1,2-a]pyrazin-6-yl)-5H-pyrrolo[2,3-d]pyrimidin-6(7H)-one] | 104% | 54 nM |  |  | A (Category A=SBP in SHRs<20 mmHg)
CC1(c2ccc(F)c(F)c2)C(=O)Nc2nc(-c3cn4ccnc4c(CCC(F)(F)F)n3)ncc21 (stereo not drawn) [Example 37B, 5-(3,4-difluorophenyl)-5-methyl-2-(8-(3,3,3-trifluoropropyl)imidazo[1,2-a]pyrazin-6-yl)-5H-pyrrolo[2,3-d]pyrimidin-6(7H)-one] | 125% | 800 nM | B (Category B=SBP in SHRs 20-40 mmHg) |  | 
CCCc1nc(-c2ncc3c(n2)NC(=O)C3(C)c2ccc(Cl)c(F)c2)cn2ccnc12 (stereo not drawn) [Example 38B, 5-(4-chloro-3-fluorophenyl)-5-methyl-2-(8-propylimidazo[1,2-a]pyrazin-6-yl)-5H-pyrrolo[2,3-d]pyrimidin-6(7H)-one] | 135% | 173 nM |  | A (Category A=SBP in SHRs<20 mmHg) | 
CCCc1nc(-c2ncc3c(n2)NC(=O)C3(C)c2ccc(Cl)cc2)cn2ccnc12 (stereo not drawn) [Example 39A, 5-(4-chlorophenyl)-5-methyl-2-(8-propylimidazo[1,2-a]pyrazin-6-yl)-5H-pyrrolo[2,3-d]pyrimidin-6(7H)-one] | 101% | 92 nM |  | A (Category A=SBP in SHRs<20 mmHg) | 
CC(C)Cc1nc(-c2ncc3c(n2)NC(=O)C3(C)c2ccc(Cl)cn2)cn2ccnc12 (stereo not drawn) [Example 41A, 5-(5-chloropyridin-2-yl)-2-(8-isobutylimidazo[1,2-a]pyrazin-6-yl)-5-methyl-5H-pyrrolo[2,3-d]pyrimidin-6(7H)-one] | 111% | 235 nM | A (Category A=SBP in SHRs<20 mmHg) |  | 
CC1(c2ccc(Cl)cn2)C(=O)Nc2nc(-c3cn4ccnc4c(Cc4ccc(F)cc4)n3)ncc21 (stereo not drawn) [Example 42A, 5-(5-chloropyridin-2-yl)-2-(8-(4-fluorobenzyl)imidazo[1,2-a]pyrazin-6-yl)-5-methyl-5H-pyrrolo[2,3-d]pyrimidin-6(7H)-one] | 124% | 4 nM |  |  | B (Category B=SBP in SHRs 20-40 mmHg)
O=C1Nc2nc(-c3cn4ccnc4c(CCCC(F)(F)F)n3)ncc2C1(c1ccc(F)c(F)c1)C1CC1 (stereo not drawn) [Example 44A, 5-cyclopropyl-5-(3,4-difluorophenyl)-2-(8-(4,4,4-trifluorobutyl)imidazo[1,2-a]pyrazin-6-yl)-5H-pyrrolo[2,3-d]pyrimidin-6(7H)-one] | 150% | 114 nM |  | B (Category B=SBP in SHRs 20-40 mmHg) | 
CCCCc1nc(-c2ncc3c(n2)NC(=O)C3(c2ccc(Cl)cc2)C2CC2)cn2ccnc12 (stereo not drawn) [Example 49B, 2-(8-butylimidazo[1,2-a]pyrazin-6-yl)-5-(4-chlorophenyl)-5-cyclopropyl-5H-pyrrolo[2,3-d]pyrimidin-6(7H)-one] | 157% | 24 nM |  | B (Category B=SBP in SHRs 20-40 mmHg) | 
O=C1Nc2nc(-c3cn4ccnc4c(CCCC(F)(F)F)n3)ncc2C1(c1ccc(Cl)cc1)C1CC1 (stereo not drawn) [Example 50B, 5-(4-chlorophenyl)-5-cyclopropyl-2-(8-(4,4,4-trifluorobutyl)imidazo[1,2-a]pyrazin-6-yl)-5H-pyrrolo[2,3-d]pyrimidin-6(7H)-one] | 155% | 63 nM |  | B (Category B=SBP in SHRs 20-40 mmHg) | 
